Values after ≈ are worked out from the molar mass of the structure shown. Read-outs that look alike come from different tables or passages of the source.
Columns and labels:
Format in all cases: cell-based
Aspergillus flavus = assay: Broth microdilution MIC of individual antifungals; settings: individual antifungal, 25% PDB, about 25° C., 72 hours, range over N independent triplicate studies, read-out: Independent MIC
Aspergillus fumigatus = assay: Broth microdilution MIC of individual antifungals; settings: read-out: Independent MIC
Aspergillus niger = assay: Broth microdilution MIC of individual antifungals; settings: read-out: Independent MIC
Sclerotinia homoeocarpa = assay: Broth microdilution MIC of individual antifungals; settings: Clarireedia homoeocarpa, read-out: Independent MIC
Botrytis cinerea 10-1728 = assay: Broth microdilution MIC of individual antifungals; settings: for MIC: read-out: Independent MIC
Rhizopus sp. = assay: Broth microdilution MIC of individual antifungals; settings: for MIC: Rhizopus, 72 h, read-out: Independent MIC
Mucor sp. = assay: Broth microdilution MIC of individual antifungals; settings: individual antifungal, 25% PDB, about 25° C., 72 hours, range over N independent triplicate studies
Penicillium chrysogenum = assay: Broth microdilution MIC of individual antifungals; settings: read-out: Independent MIC
[1] = test system: Mycosphaerella zeae-maydis; assay: Broth microdilution MIC of individual antifungals; settings: Didymella maydis, individual antifungal, 25% PDB, about 25° C., 72 hours, range over N independent triplicate studies
Alternaria solani = assay: Broth microdilution MIC of individual antifungals; settings: read-out: Independent MIC
Aureobasidium pullulans = assay: Broth microdilution MIC of individual antifungals; settings: read-out: Independent MIC
Botrytis cinerea B17 = assay: Broth microdilution MIC of individual antifungals; settings: read-out: Independent MIC
Fusarium graminearum = assay: microbe, parasite or virus in culture; settings: Fusarium graminearum, 72 h, read-out: Independent MIC
[2] = test system: Fusarium solani f. sp. pisi (MP VI); assay: Broth microdilution MIC of individual antifungals; settings: Fusarium solani f. sp. pisi (MP VI); individual antifungal, 25% PDB, about 25° C., 72 hours; range over N independent triplicate studies; read-out: Independent MIC
Stachybotrys chartarum = assay: Broth microdilution MIC of individual antifungals; settings: read-out: Independent MIC
Magnaporthe grisea = assay: microbe, parasite or virus in culture; settings: Pyricularia oryzae, 72 h, read-out: Independent MIC
Phytophthora pini = assay: Broth microdilution MIC of individual antifungals; settings: individual antifungal, 25% PDB, about 25° C., 72 hours, range over N independent triplicate studies
[3] = test system: Colletotrichum orbiculare; assay: Broth microdilution MIC of individual antifungals; settings: for MIC: read-out: Independent MIC
Candida albicans = assay: Broth microdilution MIC of individual antifungals; settings: read-out: Independent MIC
Rhizoctonia solani = assay: Broth microdilution MIC of individual antifungals; settings: read-out: Independent MIC
Fusarium verticillioides = assay: Broth microdilution MIC of individual antifungals; settings: read-out: Independent MIC
[4] = individual antifungal, 25% PDB, about 25° C., 72 hours, range over N independent triplicate studies
[5] = Sclerotinia homoeocarpa, individual antifungal, 25% PDB, about 25° C., 72 hours, range over N independent triplicate studies
[6] = 101728, Botrytis cinerea 10-1728, individual antifungal, 25% PDB, about 25° C., 72 hours, range over N independent triplicate studies
[7] = Rhizopus sp., individual antifungal, 25% PDB, about 25° C., 72 hours, range over N independent triplicate studies
[8] = Botrytis cinerea B17, individual antifungal, 25% PDB, about 25° C., 72 hours, range over N independent triplicate studies

SMILES	MIC (Aspergillus flavus) [µg/mL]	MIC (Aspergillus fumigatus; [4]) [µg/mL]	MIC (Aspergillus niger; [4]) [µg/mL]	MIC (Sclerotinia homoeocarpa; [5]) [µg/mL]	MIC (Botrytis cinerea 10-1728; [6]) [µg/mL]	MIC (Rhizopus sp.; [7]) [µg/mL]	MIC (Mucor sp.) [µg/mL]	MIC [1] [µg/mL]	MIC (Alternaria solani; [4]) [µg/mL]	MIC (Fusarium graminearum) [µg/mL]	MIC (Magnaporthe grisea) [µg/mL]	MIC (Phytophthora pini) [µg/mL]	MIC [3, 4] [µg/mL]	further results
O=C(NCCc1ncc(C(F)(F)F)cc1Cl)c1ccccc1C(F)(F)F [Fluopyram, fluopyram]	200	3.12 to 6.25	0.78 to 1.56	0.78 to 3.12	1.56 to 4	200	200							MIC (Penicillium chrysogenum; [4]): 0.1 to 0.4 µg/mL
COC(=O)N(OC)c1ccccc1COc1ccn(-c2ccc(Cl)cc2)n1 [Pyraclostrobin, pyraclostrobin]		20 to 25	25 to 50	0.5	200	50	100	2 to 4	50 to 100	200 (≈ 516 µM)	0.02 to 0.025 (≈ 0.0516 to 0.0645 µM)	1.56	3.12	MIC (Aureobasidium pullulans; [4]): 0.188 to 0.78 µg/mL; MIC (Botrytis cinerea B17; [8]): 3.75 to 8 µg/mL; MIC [2]: 100 to 200 µg/mL; MIC (Stachybotrys chartarum; [4]): 1.56 to 4 µg/mL; MIC (Penicillium chrysogenum; [4]): 0.1 to 0.4 µg/mL
CCCCc1c(C)nc(NCC)nc1OS(=O)(=O)N(C)C [Bupirimate]				50 to 100	100		100				50 (≈ 158 µM)	50		
CC(C)OP(=O)(OC(C)C)SCc1ccccc1 [Iprobenfos, iprobenfos]				12.5 to 25	100 to 200		100 to 200			200 to 400 (≈ 694 to 1390 µM)	25 (≈ 86.7 µM)			MIC (Aspergillus niger; 72 h): 200 to 300 µg/mL; MIC (Candida albicans; 72 h): 200 to 400 µg/mL; MIC (Rhizoctonia solani; [4]): 200 to 400 µg/mL; MIC ([3]; 72 h): 12.5 to 25 µg/mL
C=CCOC1=NS(=O)(=O)c2ccccc21 [Probenazole, probenazole]				50 to 100	100		200	200	200		100 (≈ 448 µM)	200		
CC(C)CC(C)c1sccc1NC(=O)c1cn(C)nc1C(F)(F)F (stereo not shown) [Penthiopyrad, penthiopyrad]	100				15 to 25						1.56 (≈ 4.34 µM)		50 to 100	MIC (Aspergillus niger; 72 h): 0.78 to 1.56 µg/mL
CC#Cc1cc(C)nc(Nc2ccccc2)n1 [Mepanipyrim, mepanipyrim]	0.75	0.05 to 0.1	25	0.098 to 0.19	50 to 100	50								MIC (Penicillium chrysogenum; [4]): 0.025 to 0.048 µg/mL
N#Cc1c[nH]cc1-c1cccc2c1OC(F)(F)O2 [Fludioxonil, fludioxonil]		0.25 to 1		0.125 to 0.25	0.5 to 0.78			2		50 (≈ 201 µM)	0.16 to 0.31 (≈ 0.645 to 1.25 µM)	200		MIC (Aureobasidium pullulans; 72 h): 3 to 3.12 µg/mL; MIC (Botrytis cinerea B17; Botrytis cinerea, B17, 72 h): 0.5 µg/mL; MIC (Stachybotrys chartarum; 72 h): 2 µg/mL; MIC (Rhizopus sp.): 50 to 80 µg/mL; MIC (Penicillium chrysogenum; 72 h): 0.012 to 0.048 µg/mL; MIC ([3]; 72 h): 0.195 to 0.39 µg/mL
CC(C)NC(=O)N1CC(=O)N(c2cc(Cl)cc(Cl)c2)C1=O [Iprodione, ipordione]		12.5 to 50	50 to 100	4 to 10	15 to 25		1.56 to 6.25		3.12 to 6.25		12.5 (≈ 37.9 µM)			MIC (Aureobasidium pullulans; 72 h): 12.5 to 50 µg/mL; MIC (Botrytis cinerea B17; [8]): 16 to 20 µg/mL; MIC (Stachybotrys chartarum; [4]): 25 to 30 µg/mL; MIC (Rhizopus sp.): 3.12 to 12.5 µg/mL
Cc1ccc(-c2c(Cl)nc(C#N)n2S(=O)(=O)N(C)C)cc1 [Cyazofamid, cyazofamid]				100	200 to 400			100		100 (≈ 308 µM)			50 to 100	MIC (Fusarium verticillioides; [4]): 200 µg/mL; MIC (Rhizoctonia solani; [4]): 50 to 100 µg/mL
Cc1cc(C2CC2)nc(Nc2ccccc2)n1 [Cyprodinil, cyprodinil]	0.75 to 1.56		3.12	0.39	50 to 100		50	1.56	100	200 (≈ 888 µM)			100 to 200	MIC (Candida albicans; [4]): 50 µg/mL; MIC (Fusarium verticillioides; [4]): 100 to 200 µg/mL; MIC (Penicillium chrysogenum; [4]): 0.025 to 0.048 µg/mL
CCOP(=O)(Sc1ccccc1)Sc1ccccc1 [Edifenphos, edifenphos]							50 to 100	200 to 400			6.25 (≈ 20.1 µM)	100		MIC (Alternaria solani; 72 h): 200 µg/mL; MIC (Aspergillus fumigatus; 72 h): 200 µg/mL; MIC (Sclerotinia homoeocarpa; 72 h): 3.12 to 6.25 µg/mL; MIC (Botrytis cinerea 10-1728; Botrytis cinerea, 101728, 72 h): 100 to 200 µg/mL; MIC (Fusarium verticillioides; 72 h): 200 to 400 µg/mL; MIC (Rhizoctonia solani; 72 h): 200 to 400 µg/mL
COCC(=O)N(c1c(C)cccc1C)C(C)C(=O)OC (stereo not shown) [Metalaxyl, metalaxyl]	400	400	400	128 to 200		400								MIC (Botrytis cinerea B17; [8]): 50 to 64 µg/mL
O=[N+]([O-])c1cc(C(F)(F)F)c(Cl)c([N+](=O)[O-])c1Nc1ncc(C(F)(F)F)cc1Cl [Fluazinam, fluazinam]			3.12	3.12 to 6.25	1 to 1.56	0.2 to 0.78	0.78 to 1	1 to 1.56	0.5 to 0.78			3.12		MIC (Fusarium verticillioides; [4]): 12.5 µg/mL; MIC (Rhizoctonia solani; [4]): 6.25 to 25 µg/mL
CCCC1COC(Cn2cncn2)(c2ccc(Cl)cc2Cl)O1 (stereo not shown) [Propiconazole, propiconazole]	6.25 to 12.5	2.5 to 6.25	12.5	0.5 to 1	1.25 to 3.12	12.5 to 24	50	3 to 6.25	100 to 160	12.5 to 25 (≈ 36.5 to 73.1 µM)	1.56 (≈ 4.56 µM)	6.25	3.12	MIC (Aureobasidium pullulans; 72 h): 1.56 to 6 µg/mL; MIC (Botrytis cinerea B17; [8]): 1 to 2 µg/mL; MIC (Candida albicans; [4]): 100 to 200 µg/mL; MIC (Fusarium verticillioides; [4]): 0.5 to 2 µg/mL; MIC [2]: 200 µg/mL; MIC (Stachybotrys chartarum; [4]): 6.25 to 12.5 µg/mL; Independent MIC (Rhizopus sp.; [7]): 12.5 µg/mL; MIC (Penicillium chrysogenum; [4]): 6.25 to 12.5 µg/mL
O=[N+]([O-])c1c(Cl)c(Cl)c(Cl)c(Cl)c1Cl [Quintozene, quintozene]														Independent MIC (Botrytis cinerea 10-1728; Botrytis cinerea 10-1728, individual antifungal, 25% PDB, about 25° C., 72 hours, range over N independent triplicate studies): 50 µg/mL; Independent MIC [3, 4]: (25-50) μg/mL
CC(C)(C)C(O)(CCc1ccc(Cl)cc1)Cn1cncn1 (stereo not shown) [Tebuconazole, tebuconazole]	3 to 3.12	0.78 to 1.56	3.12	0.39 to 0.78	1 to 1.56	0.78	12.5 to 15	50 to 100	25 to 50				1.56 to 3.13	MIC (Candida albicans; [4]): 100 to 200 µg/mL; MIC (Fusarium verticillioides; [4]): 1.56 to 3 µg/mL; MIC (Rhizoctonia solani; [4]): 3.12 to 6.25 µg/mL
